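Growth conditions: 96-well plates. Treatment: test compound, 48 hours, 5 concentrations. Analysis: linear interpolation between bracketing concentrations; unreached endpoints set to highest concentration. GI50 marks 50% less growth.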 Calls of active or inactive are those of the source. Cut-off read from the data, not from the text of the source: active = GI50 up to about 1.1 µM and inactive = higher.
Assays:
Assay in all cases: DTP human tumour cell line panel, 48 h
786-0 = system: 786-0
ACHN = system: ACHN
BT-549 = system: BT-549
CAKI-1 = system: CAKI-1
HCT-116 = system: HCT-116
MDA-MB-231 = system: MDA-MB-231
MDA-N = system: MDA-N
NCI-H460 = system: NCI-H460
OVCAR-4 = system: OVCAR-4
OVCAR-5 = system: OVCAR-5
RPMI-8226 = system: RPMI-8226
SF-295 = system: SF-295
SK-MEL-28 = system: SK-MEL-28
SN12C = system: SN12C
U-251 = system: U-251
Hs-578T = system: Hs-578T
LOX IMVI = system: LOX IMVI
MOLT-4 = system: MOLT-4
SR = system: SR

SMILES	GI50 (786-0)	GI50 (ACHN)	GI50 (BT-549)	GI50 (CAKI-1)	GI50 (HCT-116)	GI50 (MDA-MB-231)	GI50 (MDA-N)	GI50 (NCI-H460)	GI50 (OVCAR-4)	GI50 (OVCAR-5)	GI50 (RPMI-8226)	GI50 (SF-295)	GI50 (SK-MEL-28)	GI50 (SN12C)	GI50 (U-251)	GI50 (Hs-578T)	GI50 (LOX IMVI)	GI50 (MOLT-4)	GI50 (SR)
C=CCOC(=O)CCCCCCCCCCCCCCCOC(=O)c1c(CCC[C@@H](C)O[Si](C)(C)C(C)(C)C)nc([O-])[n+]2c1CC[C@H]2CC1(CC/C=C\[C@H](CC)O[Si](C(C)C)(C(C)C)C(C)C)OCCO1	26.7 µM (inactive)	35.7 µM (inactive)	> 100 µM (inactive)	> 100 µM (inactive)	47.1 µM (inactive)	18.6 µM (inactive)	60.8 µM (inactive)	> 100 µM (inactive)	> 100 µM (inactive)	30.1 µM (inactive)	48.8 µM (inactive)	48.8 µM (inactive)	> 100 µM (inactive)	34 µM (inactive)	17.2 µM (inactive)				
CC(=O)NCC1(c2ccccc2)CCN(CC2COc3ccccc3O2)CC1 (stereo unspecified) [ACOXATRINE]	> 100 µM (inactive)	> 100 µM (inactive)		> 100 µM (inactive)	> 100 µM (inactive)	> 100 µM (inactive)	> 100 µM (inactive)	> 100 µM (inactive)	> 100 µM (inactive)	> 100 µM (inactive)	> 100 µM (inactive)	> 100 µM (inactive)	> 100 µM (inactive)	> 100 µM (inactive)	> 100 µM (inactive)	> 100 µM (inactive)	62.2 µM (inactive)	> 100 µM (inactive)	> 100 µM (inactive)
O=C(/C=C/c1ccc(Cl)cc1)c1nc2ccccc2[nH]1	13 µM (inactive)	48.9 µM (inactive)	32.9 µM (inactive)	3.44 µM (inactive)	16.7 µM (inactive)	23.1 µM (inactive)		53 µM (inactive)	19 µM (inactive)	95.7 µM (inactive)	2.19 µM (inactive)	22 µM (inactive)	32.4 µM (inactive)	37.2 µM (inactive)		72.1 µM (inactive)	15.2 µM (inactive)		
C(=N\NC1=NCCCN1)/c1ccc(-c2cn3cc(/C=N/NC4=NCCCN4)ccc3n2)cc1	18.9 µM (inactive)	42 µM (inactive)	> 100 µM (inactive)	37 µM (inactive)	> 88.3 µM (inactive)	> 72.6 µM (inactive)	> 100 µM (inactive)	7.23 µM (inactive)	> 100 µM (inactive)	> 100 µM (inactive)	> 27.9 µM (inactive)	> 100 µM (inactive)	> 100 µM (inactive)	> 100 µM (inactive)	> 88.9 µM (inactive)		> 100 µM (inactive)	5.73 µM (inactive)	
CC1(C)O[C@@H](CO)[C@H]([C@@]23OC[C@H]4OC(C)(C)OC4[C@@H]2OC(C)(C)O3)O1 (stereo partly specified)	> 100 µM (inactive)	> 100 µM (inactive)			> 100 µM (inactive)	> 100 µM (inactive)	> 100 µM (inactive)	> 100 µM (inactive)	> 100 µM (inactive)	> 100 µM (inactive)	> 100 µM (inactive)	> 100 µM (inactive)	> 100 µM (inactive)	> 100 µM (inactive)	> 100 µM (inactive)	> 100 µM (inactive)	> 100 µM (inactive)	> 100 µM (inactive)	> 100 µM (inactive)
[O-][n+]1ccccc1Sc1nc(Sc2cccc[n+]2[O-])nc(Sc2cccc[n+]2[O-])n1	1.27 µM (inactive)	1.54 µM (inactive)	1.61 µM (inactive)	0.9 µM (active)	1.25 µM (inactive)	1.38 µM (inactive)		1.88 µM (inactive)	1.59 µM (inactive)	1.7 µM (inactive)	0.385 µM (active)	3.14 µM (inactive)	0.697 µM (active)	1.81 µM (inactive)	1.69 µM (inactive)	2.08 µM (inactive)	0.92 µM (active)	0.189 µM (active)	0.171 µM (active)
O=C(c1ccccc1)C(c1ccccc1)C1(O)C(=O)Nc2c(Cl)ccc(Cl)c21 (stereo unspecified)	19.5 µM (inactive)	16.9 µM (inactive)		20.5 µM (inactive)	16.3 µM (inactive)			14.3 µM (inactive)	3.73 µM (inactive)	20.4 µM (inactive)	12.2 µM (inactive)	16.5 µM (inactive)	18.7 µM (inactive)	17.9 µM (inactive)	25.8 µM (inactive)		11.8 µM (inactive)	15.9 µM (inactive)	
OC1c2ccccc2CC12Cc1ccccc1C2 (stereo unspecified)	> 100 µM (inactive)	> 100 µM (inactive)		> 100 µM (inactive)	79.4 µM (inactive)	> 100 µM (inactive)	> 100 µM (inactive)	> 100 µM (inactive)	> 100 µM (inactive)	> 100 µM (inactive)	48.2 µM (inactive)	> 100 µM (inactive)	> 100 µM (inactive)	78.9 µM (inactive)	> 100 µM (inactive)	> 100 µM (inactive)	> 100 µM (inactive)	24.5 µM (inactive)	38.5 µM (inactive)
c1ccc(/N=c2/sc3ccccc3s/c2=N/c2ccccc2)cc1	1.74 µM (inactive)	1.66 µM (inactive)		1.87 µM (inactive)	1.72 µM (inactive)	2.21 µM (inactive)	1.61 µM (inactive)	1.96 µM (inactive)	2.02 µM (inactive)	2.11 µM (inactive)	4.57 µM (inactive)	3.76 µM (inactive)	1.81 µM (inactive)	1.75 µM (inactive)	1.86 µM (inactive)	2.68 µM (inactive)	1.7 µM (inactive)	5.18 µM (inactive)	3.35 µM (inactive)
Cc1ccc(NC2=NCCO2)c2c1CCC2	56 µM (inactive)	85.3 µM (inactive)		> 100 µM (inactive)	15.3 µM (inactive)	19.7 µM (inactive)	17.6 µM (inactive)	27.5 µM (inactive)	48.9 µM (inactive)	26 µM (inactive)	34.8 µM (inactive)	> 100 µM (inactive)	32.8 µM (inactive)	45 µM (inactive)	39.4 µM (inactive)	22.9 µM (inactive)	22.8 µM (inactive)	33.9 µM (inactive)	22.1 µM (inactive)
Cn1nc2n(c1=O)CCCN2	> 100 µM (inactive)	> 100 µM (inactive)			> 100 µM (inactive)	> 100 µM (inactive)	> 100 µM (inactive)	> 100 µM (inactive)	> 100 µM (inactive)	> 100 µM (inactive)	> 100 µM (inactive)	> 100 µM (inactive)	> 100 µM (inactive)	> 100 µM (inactive)	> 100 µM (inactive)	> 100 µM (inactive)	> 100 µM (inactive)		> 100 µM (inactive)
Cc1ccc2n(c1)cc(-c1ccc(/C=N/NC(=N)N/N=C/c3ccc(-c4cn5cc(C)ccc5[n+]4C)cc3)cc1)[n+]2C	36.3 µM (inactive)	40.2 µM (inactive)			> 100 µM (inactive)	> 100 µM (inactive)	50.2 µM (inactive)	80.2 µM (inactive)	26.9 µM (inactive)	> 100 µM (inactive)	> 100 µM (inactive)	> 100 µM (inactive)	19.5 µM (inactive)	> 100 µM (inactive)	> 100 µM (inactive)	74.3 µM (inactive)		> 100 µM (inactive)	> 100 µM (inactive)
CC(=O)OC1[C@H](OC(C)=O)C2=C(C)[C@@H](OC(C)=O)C[C@@]2(C(C)(C)O)[C@@H](OC(C)=O)[C@H]2[C@@]1(C)[C@@H](OC(C)=O)CC(OC(C)=O)[C@]21CO1 (stereo partly specified)	> 100 µM (inactive)	> 100 µM (inactive)		> 100 µM (inactive)	> 100 µM (inactive)		> 100 µM (inactive)		> 100 µM (inactive)	> 100 µM (inactive)	> 100 µM (inactive)	> 100 µM (inactive)	> 100 µM (inactive)	> 100 µM (inactive)	> 100 µM (inactive)	> 100 µM (inactive)	> 100 µM (inactive)	> 100 µM (inactive)	> 100 µM (inactive)
c1ccc2c(c1)c1c(n2CCOCCN2CCCC2)CCCC1	16.1 µM (inactive)	20.1 µM (inactive)		27.2 µM (inactive)	17.1 µM (inactive)	16.4 µM (inactive)	19.4 µM (inactive)	15 µM (inactive)	16.8 µM (inactive)	17.8 µM (inactive)	18.2 µM (inactive)	37.2 µM (inactive)	16 µM (inactive)	17.5 µM (inactive)	13.1 µM (inactive)	14.9 µM (inactive)	18.5 µM (inactive)	16.7 µM (inactive)	17.2 µM (inactive)
O=C1N(c2ccccc2)C2(c3ccccc3)CC3CCCC13S2 (stereo unspecified)	78.9 µM (inactive)	> 100 µM (inactive)	51.3 µM (inactive)	> 100 µM (inactive)	46.6 µM (inactive)	72.1 µM (inactive)			27.8 µM (inactive)	> 100 µM (inactive)	27.5 µM (inactive)	86.1 µM (inactive)	> 100 µM (inactive)	96.2 µM (inactive)	49.5 µM (inactive)	57.9 µM (inactive)	53.5 µM (inactive)	24.2 µM (inactive)	26.4 µM (inactive)
N#Cc1c2c(c(Nc3cccc(C(F)(F)F)c3)n3c1nc1ccccc13)CCC2	> 100 µM (inactive)	> 100 µM (inactive)	60.7 µM (inactive)	> 100 µM (inactive)	> 100 µM (inactive)	> 100 µM (inactive)			> 100 µM (inactive)	> 100 µM (inactive)	> 100 µM (inactive)	> 100 µM (inactive)	> 100 µM (inactive)	> 100 µM (inactive)	> 100 µM (inactive)		> 100 µM (inactive)	> 100 µM (inactive)	

— ChEMBL document CHEMBL1201862, “PubChem BioAssay data set” (2004)
